# pIC50: −log10 of the molar value.
# Molecular target: T1, human recombinant HDAC6 (Homo sapiens, UniProt Q9UBN7)
# T1 construct: purchased Calbiochem 382180
# T1 sequence (Q9UBN7 1-1215): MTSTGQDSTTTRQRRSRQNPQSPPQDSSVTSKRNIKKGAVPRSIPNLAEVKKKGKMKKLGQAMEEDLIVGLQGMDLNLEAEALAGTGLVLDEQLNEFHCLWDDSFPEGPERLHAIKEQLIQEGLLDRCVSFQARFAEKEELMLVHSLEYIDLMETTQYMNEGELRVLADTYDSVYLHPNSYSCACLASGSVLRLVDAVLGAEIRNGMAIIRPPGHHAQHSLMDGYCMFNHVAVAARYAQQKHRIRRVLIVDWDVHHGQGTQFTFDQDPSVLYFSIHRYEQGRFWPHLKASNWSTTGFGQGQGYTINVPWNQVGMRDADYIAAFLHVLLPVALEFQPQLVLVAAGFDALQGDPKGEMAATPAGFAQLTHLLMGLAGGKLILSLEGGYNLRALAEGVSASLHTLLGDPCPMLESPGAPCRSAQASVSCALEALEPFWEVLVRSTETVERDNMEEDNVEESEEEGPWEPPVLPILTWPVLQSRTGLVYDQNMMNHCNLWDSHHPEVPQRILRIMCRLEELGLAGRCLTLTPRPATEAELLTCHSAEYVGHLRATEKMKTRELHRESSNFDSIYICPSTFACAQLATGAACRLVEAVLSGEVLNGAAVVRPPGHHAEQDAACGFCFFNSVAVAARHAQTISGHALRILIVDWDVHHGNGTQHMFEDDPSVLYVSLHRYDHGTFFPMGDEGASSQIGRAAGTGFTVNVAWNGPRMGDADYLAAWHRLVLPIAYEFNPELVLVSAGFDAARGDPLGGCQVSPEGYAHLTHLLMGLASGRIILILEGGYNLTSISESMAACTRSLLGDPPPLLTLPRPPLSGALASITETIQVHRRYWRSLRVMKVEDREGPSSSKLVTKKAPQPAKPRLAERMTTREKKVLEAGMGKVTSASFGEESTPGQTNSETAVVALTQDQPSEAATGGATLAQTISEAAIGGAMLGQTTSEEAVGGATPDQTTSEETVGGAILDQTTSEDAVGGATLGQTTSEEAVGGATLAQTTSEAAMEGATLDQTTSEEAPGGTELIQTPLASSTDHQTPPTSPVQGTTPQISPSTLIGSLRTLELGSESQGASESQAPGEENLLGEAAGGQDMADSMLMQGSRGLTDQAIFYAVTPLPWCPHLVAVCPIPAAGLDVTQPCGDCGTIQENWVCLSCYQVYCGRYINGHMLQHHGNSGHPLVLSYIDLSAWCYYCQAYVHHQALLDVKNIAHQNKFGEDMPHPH
# Test: HDAC6 enzyme activity inhibition assay (HDAC Fluorimetric Drug Discovery Kit)
# Format: biochemical
# Settings: for HDAC6 selectivity (fold): HDAC6 over HDAC1; for pIC50: human recombinant HDAC6, same protocol as HDAC1, read-out: HDAC6
# Summary of the method: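 Fluorimetric deacetylase assay: 5-fold serial compound dilutions, 0.3 μg recombinant human enzyme (HDAC1 or HDAC6, same protocol), 10 μM Fluor de Lys-SIRT1 substrate, 60 min at 30 °C. Signal developed 30 min, measured at 360/460 nm; IC50 values derived.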
HDAC6 selectivity (fold),pIC50,Compound
20,6.31,"O=C(N1CCOCC1)N(Cc1ccc(-c2nnc(C(F)(F)F)o2)cc1)c1ccc(F)cc1 [Compound 21426, N-(4-fluorophenyl)-N-(4-(5-(trifluoromethyl)-1,3,4-oxadiazol-2-yl)benzyl)morpholine-4-carboxamide]"
79,6.90,"O=C(N1CCOCC1)N(Cc1ccc(-c2nnc(C(F)(F)F)o2)cc1)c1cccnc1 [Compound 21427, N-(pyridin-3-yl)-N-(4-(5-(trifluoromethyl)-1,3,4-oxadiazol-2-yl)benzyl)morpholine-4-carboxamide]"
75,6.87,"O=C(N1CCOCC1)N(Cc1ccc(-c2nnc(C(F)(F)F)o2)cc1)c1ccccc1F [Compound 21428, N-(2-fluorophenyl)-N-(4-(5-(trifluoromethyl)-1,3,4-oxadiazol-2-yl)benzyl)morpholine-4-carboxamide]"
5,5.68,"O=C(N1CCOCC1)N(Cc1ccc(-c2nnc(C(F)(F)F)o2)cc1Cl)c1ccccc1 [Compound 21429, N-(2-chloro-4-(5-(trifluoromethyl)-1,3,4-oxadiazol-2-yl)benzyl)-N-phenylmorpholine-4-carboxamide]"
39,6.59,"O=C(N1CCOCC1)N(Cc1c(F)cc(-c2nnc(C(F)(F)F)o2)cc1F)c1ccccc1 [Compound 21431, N-(2,6-difluoro-4-(5-(trifluoromethyl)-1,3,4-oxadiazol-2-yl)benzyl)-N-phenylmorpholine-4-carboxamide]"
208,7.32,"O=C(N1CCOCC1)N(Cc1c(F)cc(-c2nnc(C(F)F)o2)cc1F)c1ccccc1 [Compound 21432, N-(4-(5-(difluoromethyl)-1,3,4-oxadiazol-2-yl)-2,6-difluorobenzyl)-N-phenylmorpholine-4-carboxamide]"
172,7.24,"O=C(N1CCS(=O)(=O)CC1)N(Cc1ccc(-c2nnc(C(F)(F)F)o2)cc1)c1ccc(F)cc1F [Compound 21433, N-(2,4-difluorophenyl)-N-(4-(5-(trifluoromethyl)-1,3,4-oxadiazol-2-yl)benzyl)thiomorpholine-4-carboxamide 1,1-dioxide]"
53,6.73,"Cc1ccc(N(Cc2ccc(-c3nnc(C(F)(F)F)o3)cc2)C(=O)N2CCS(=O)(=O)CC2)c(F)c1 [Compound 21434, N-(2-fluoro-4-methylphenyl)-N-(4-(5-(trifluoromethyl)-1,3,4-oxadiazol-2-yl)benzyl)thiomorpholine-4-carboxamide 1,1-dioxide]"
37,6.57,"COc1ccccc1N(Cc1ccc(-c2nnc(C(F)(F)F)o2)cc1)C(=O)N1CCS(=O)(=O)CC1 [Compound 21440, N-(2-methoxyphenyl)-N-(4-(5-(trifluoromethyl)-1,3,4-oxadiazol-2-yl)benzyl)thiomorpholine-4-carboxamide 1,1-dioxide]"
57,6.76,"CS(=O)(=O)c1ccc(N(Cc2ccc(-c3nnc(C(F)F)o3)cc2)C(=O)N2CCOCC2)cc1 [Compound 21444, N-(4-(5-(difluoromethyl)-1,3,4-oxadiazol-2-yl)benzyl)-N-(4-(methylsulfonyl)phenyl)morpholine-4-carboxamide]"
33,6.52,"Cc1ccc(N(Cc2ccc(-c3nnc(C(F)(F)F)o3)cc2)C(=O)N2CCS(=O)(=O)CC2)cc1 [Compound 21445, N-(p-tolyl)-N-(4-(5-(trifluoromethyl)-1,3,4-oxadiazol-2-yl)benzyl)thiomorpholine-4-carboxamide 1,1-dioxide]"
115,7.06,"Cc1ccc(N(Cc2ccc(-c3nnc(C(F)F)o3)cc2)C(=O)N2CCS(=O)(=O)CC2)cc1 [Compound 21446, N-(4-(5-(difluoromethyl)-1,3,4-oxadiazol-2-yl)benzyl)-N-(p-tolyl)thiomorpholine-4-carboxamide 1,1-dioxide]"
196,7.29,"O=C(N1CCS(=O)(=O)CC1)N(Cc1ccc(-c2nnc(C(F)(F)F)o2)cc1)c1ccccc1F [Compound 21447, N-(2-fluorophenyl)-N-(4-(5-(trifluoromethyl)-1,3,4-oxadiazol-2-yl)benzyl)thiomorpholine-4-carboxamide 1,1-dioxide]"
278,7.44,"O=C(N1CCS(=O)(=O)CC1)N(Cc1ccc(-c2nnc(C(F)F)o2)cc1)c1ccccc1F [Compound 21448, N-(4-(5-(difluoromethyl)-1,3,4-oxadiazol-2-yl)benzyl)-N-(2-fluorophenyl)thiomorpholine-4-carboxamide 1,1-dioxide]"
7,5.82,"O=C(N1CCS(=O)(=O)CC1)N(Cc1ccc(-c2nnc(C(F)(F)F)o2)cc1)c1ccccc1C(F)(F)F [Compound 21449, N-(4-(5-(trifluoromethyl)-1,3,4-oxadiazol-2-yl)benzyl)-N-(2-(trifluoromethyl)phenyl)thiomorpholine-4-carboxamide 1,1-dioxide]"
19,6.28,"O=C(N1CCS(=O)(=O)CC1)N(Cc1ccc(-c2nnc(C(F)F)o2)cc1)c1ccccc1C(F)(F)F [Compound 21450, N-(4-(5-(difluoromethyl)-1,3,4-oxadiazol-2-yl)benzyl)-N-(2-(trifluoromethyl)phenyl)thiomorpholine-4-carboxamide 1,1-dioxide]"
30,6.48,"Cc1ccccc1N(Cc1ccc(-c2nnc(C(F)(F)F)o2)cc1)C(=O)N1CCS(=O)(=O)CC1 [Compound 21451, N-(o-tolyl)-N-(4-(5-(trifluoromethyl)-1,3,4-oxadiazol-2-yl)benzyl)thiomorpholine-4-carboxamide 1,1-dioxide]"
93,6.97,"Cc1ccccc1N(Cc1ccc(-c2nnc(C(F)F)o2)cc1)C(=O)N1CCS(=O)(=O)CC1 [Compound 21452, N-(4-(5-(difluoromethyl)-1,3,4-oxadiazol-2-yl)benzyl)-N-(o-tolyl)thiomorpholine-4-carboxamide 1,1-dioxide]"
85,6.93,"COc1ccc(N(Cc2ccc(-c3nnc(C(F)F)o3)cc2)C(=O)N2CCS(=O)(=O)CC2)cc1 [Compound 21453, N-(4-(5-(difluoromethyl)-1,3,4-oxadiazol-2-yl)benzyl)-N-(4-methoxyphenyl)thiomorpholine-4-carboxamide 1,1-dioxide]"
94,6.97,"COc1ccc(N(Cc2ccc(-c3nnc(C(F)(F)F)o3)cn2)C(=O)N2CCS(=O)(=O)CC2)cc1 [Compound 21454, N-(4-methoxyphenyl)-N-((5-(5-(trifluoromethyl)-1,3,4-oxadiazol-2-yl)pyridin-2-yl)methyl)thiomorpholine-4-carboxamide 1,1-dioxide]"
294,7.47,"COc1ccc(N(Cc2ccc(-c3nnc(C(F)F)o3)cn2)C(=O)N2CCS(=O)(=O)CC2)cc1 [Compound 21455, N-((5-(5-(difluoromethyl)-1,3,4-oxadiazol-2-yl)pyridin-2-yl)methyl)-N-(4-methoxyphenyl)thiomorpholine-4-carboxamide 1,1-dioxide]"
17,6.24,"O=C(N1CCS(=O)(=O)CC1)N(Cc1ccc(-c2nnc(C(F)(F)F)o2)cc1)c1cccc(C(F)(F)F)n1 [Compound 21456, N-(4-(5-(trifluoromethyl)-1,3,4-oxadiazol-2-yl)benzyl)-N-(6-(trifluoromethyl)pyridin-2-yl)thiomorpholine-4-carboxamide 1,1-dioxide]"
53,6.72,"O=C(N1CCS(=O)(=O)CC1)N(Cc1ccc(-c2nnc(C(F)F)o2)cc1)c1cccc(C(F)(F)F)n1 [Compound 21457, N-(4-(5-(difluoromethyl)-1,3,4-oxadiazol-2-yl)benzyl)-N-(6-(trifluoromethyl)pyridin-2-yl)thiomorpholine-4-carboxamide 1,1-dioxide]"

# Reference: patent US10717716B2, “1,3,4-oxadiazole derivative compounds as histone deacetylase 6 inhibitor, and the pharmaceutical composition comprising the same” (Chong Kun Dang Pharmaceutical Corp., priority 2015, dated 2020)
